# Measurements from ChEMBL document CHEMBL2046275, “Cellular quantitative structure-activity relationship (Cell-QSAR): conceptual dissection of receptor binding and intracellular disposition in antifilarial activities of Selwood antimycins” (J Med Chem, 2012).
# System: Acanthocheilonema viteae
# Assay: Antifilarial activity against Dipetalonema viteae after 120 hrs
# Assay type: functional, organism-based
# Conditions: read-out: log(1/EC50) (converted)
row,SMILES,EC50
1,O=C(Nc1ccc(Nc2ccc(SC(F)(F)F)cc2)c(Cl)c1)c1cc([N+](=O)[O-])ccc1O,0.028 µM
2,CCCCCCNC(=O)c1cccc(NC=O)c1O,> 10 µM
3,O=C(Nc1ccc(C(O)c2ccccc2)cc1)c1cc([N+](=O)[O-])ccc1O (stereo not drawn),> 10 µM
